The source of these data is patent US20080038267A1, “Treatment Of Cancer” (NEUTEC PHARMA LIMITED, priority 2004, published 2008).

In data set [1] the test system is HT29 cells. As to the kind of experiment: Cell Titer Blue viability, drugs without Mycograb or Mycograb alone, HT29 cells. Format: cell-based, human. Conditions: for IC50: 5-FU tested plus 1 mg/ml Folinic acid. The protocol:
(§1) Viable cells reduce resazurin to resorufin (pink).
(§2) Cell growth was evaluated as described above.
Human colon adenocarcinoma grade 11 cell line HT29, was obtained from ECACC (ECACC number 91072201).
The cell lines were split and the cells counted. […] The next day, the cells were observed under phase contrast microscopy to ensure they had adhered to the plates and the supernatant medium removed by aspiration. 100 μl of fresh complete RPMI medium containing increasing two fold concentrations of study drug (5-FU 4.5-2400 μg/ml plus 1 mg/ml Folinic acid or Oxaliplatin 1-500 μg/ml) or medium alone (Media+2.5% DMSO for 5-FU control) was then added to the wells.

Data set [2] deals with HT29 cells. The experiment in a line: Checkerboard of Mycograb versus 5-FU/Folinic acid and/or Oxaliplatin, median effect analysis (CI), HT29 cells. Type of data set: cell-based, human. Conditions: for Dm: median effect analysis (Calcusyn).
Excerpt: as §1
CI values are shown for Fa50.
(§3) The cell lines were split and the cells counted.
as §3

The test system of data set [3] is Hsp 90 in multi-chaperone complexes derived from tumour cells. Conditions: higher than Hsp90 from normal cells (latent uncomplexed state); cited from earlier work.
Another data set deals with MCF7 cells. As to the kind of experiment: Cell Titer Blue viability, single drug, MCF7 cells. Type of data set: cell-based, human. As for the experimental part:
(§4) Viable cells reduce resazurin to resorufin (pink). Cell growth was evaluated as described above. […] The cell lines were split and cells counted. […] The next day, the cells were observed under phase contrast microscopy to ensure they had adhered to the plates and the supernatant medium removed by aspiration.
On the technique in general: Alamar Blue is a resazurin reagent that responds to reducing activity.

A further data set concerns HS578T cells. The experiment in a line: Cell Titer Blue viability, single drug, HS578T cells. Format: cell-based, human. As for the experimental part:
as §4

In another data set the test system is K562 cells. The experiment in a line: Cell Titer Blue viability, single drug, K562 cells. The protocol:
as §1, §2
K562 was established from pleural effusion of person with chronic myelogenous leukaemia in terminal blast crisis. […] The line used in these experiments was the K562B. […] K562B has been compared to K562A and K562 C, with respect to growth kinetics, cell surface protein markers, surface antigens, cytogenetics and hemoglobin production.
(§5) The cell lines were counted. […] Fresh medium containing either two-fold increasing concentrations of Mycograb® (1.5-200 μg/ml), or medium alone was then added to the wells. The plate was returned to the incubator for 48 hours following which the cell titre blue assay was carried out, or viable counts were determined using a haemocytometer.
(§6) The cell lines were counted. […] The plates were returned to the incubator for 48 hours following which cell titre blue assays were carried out.

Another data set concerns KU-812 cells. The experiment in a line: Cell Titer Blue viability, single drug, KU-812 cells. Conditions: Mycograb on its own at 50 μg/ml. The protocol: as §1, §2, §5, §6
Setting [4] is: K562 cells, single drug, 48 hour incubation.
[5] abbreviates: Homo sapiens, MCF7 cells, single drug, 48 hour incubation, read-out: IC50.
[6] abbreviates: Homo sapiens, Hs-578T, HS578T cells, single drug, 48 hour incubation, read-out: IC50.

In brackets after ≈: the same amount, converted by molar mass. Like-named read-outs stand apart in the source and are kept apart here.

Turning to `O=c1[nH]cc(F)c(=O)[nH]1` [5-FU, 5-Fluorouracil], the IC50 with HT29 cells [1] (Homo sapiens, HT-29, 48 hours, read-out: IC50) was 150 µg/mL; in the data set with HT29 cells [2] (Homo sapiens, HT-29, median effect analysis (Calcusyn), read-out: Dm), 297 µg/mL.

Consider `C=CCNC1=C2C[C@@H](C)C[C@H](OC)[C@H](O)[C@@H](C)/C=C(\C)[C@H](OC(N)=O)[C@@H](OC)/C=C\C=C(/C)C(=O)NC(=CC1=O)C2=O` [17AAG, 17-allylamino, 17-desmethoxygeldanamycin], for which the “binding affinity for 17AAG, Hsp 90 in tumour-cell multi-chaperone complexes versus Hsp90 from normal cells” value in data set [3] is on record as 100 fold.

Regarding `N.N.[Cl][Pt][Cl]` [Cisplatin], the IC50 in the data set on MCF7 cells (MCF7 cells, single drug, 48 hour incubation) was 6 µg/mL; with HS578T cells (HS578T cells, single drug, 48 hour incubation) it was 12.5 µg/mL; with K562 cells (setting [4]), 12.5 µg/mL.

In the case of `COc1cccc2c1C(=O)c1c(O)c3c(c(O)c1C2=O)C[C@@](O)(C(C)=O)C[C@@H]3O[C@H]1C[C@H](N)[C@H](O)[C@H](C)O1` [Daunorubicin], the IC50 in the data set on MCF7 cells (Homo sapiens, MCF7, 48 h) was 1 µg/mL (≈ 1.9 µM); with HS578T cells (Homo sapiens, Hs-578T, 48 h), 1 µg/mL (≈ 1.9 µM); in the data set with K562 cells (Homo sapiens, K562, 48 h), 0.75 µg/mL (≈ 1.42 µM).

Consider `CC(=O)O[C@@]12CO[C@@H]1C[C@H](O)[C@@]1(C)C(=O)[C@H](O)C3=C(C)[C@@H](OC(=O)[C@H](O)[C@@H](NC(=O)OC(C)(C)C)c4ccccc4)C[C@@](O)([C@@H](OC(=O)c4ccccc4)[C@H]21)C3(C)C` [Docetaxel], for which the IC50 in the data set on MCF7 cells (setting [5]) is 225 µg/mL (≈ 279 µM); with HS578T cells (setting [6]), 50 µg/mL (≈ 61.9 µM); in the data set on K562 cells (Homo sapiens, K562, 48 h), 70 µg/mL (≈ 86.6 µM).

Take `COc1cccc2c1C(=O)c1c(O)c3c(c(O)c1C2=O)C[C@@](O)(C(=O)CO)C[C@@H]3O[C@H]1C[C@H](N)[C@H](O)[C@H](C)O1` [Doxorubicin]: the IC50 in the data set on MCF7 cells (setting [5]) is 1.75 µg/mL (≈ 3.22 µM); in the data set with HS578T cells (setting [6]) it was 1 µg/mL (≈ 1.84 µM); in the data set on K562 cells (Homo sapiens, K562, 48 h) it was 1 µg/mL (≈ 1.84 µM).

Turning to `NC(=O)NO` [Hydroxyurea], the IC50 result with K562 cells (setting [4]) is on record as “never reached”.

`O=C1[O][Pt]2([NH][C@@H]3CCCC[C@H]3[NH]2)[O]C1=O` [Oxaliplatin]: the IC50 in the data set with HT29 cells [1] (48 hours) was 16 µg/mL. In the data set with HT29 cells [2], the Dm is 27.77.

As for `CC(=O)O[C@H]1C(=O)[C@@]2(C)[C@H]([C@H](OC(=O)c3ccccc3)[C@]3(O)C[C@H](OC(=O)[C@H](O)[C@@H](NC(=O)c4ccccc4)c4ccccc4)C(C)=C1C3(C)C)[C@]1(OC(C)=O)CO[C@@H]1C[C@@H]2O` [Paclitaxel], the IC50 in the data set on MCF7 cells (setting [5]) was determined as 225 µg/mL (≈ 263 µM); in the data set with K562 cells (Homo sapiens, K562, 48 h), 32 µg/mL (≈ 37.5 µM).

B1: Mycograb: anti-Hsp90 antibody disclosed in WO 01/76627, sequence of SEQ ID NO: 2, specific for epitope of peptide SEQ ID NO: 1 (protein)
chain: HMAEVQLVESGAEVKKPGESLRISCKGSGCIISSYWISWVRQMPGKGLEWMGKIDPGDSYINYSPSFQGHVTISADKSINTAYLQWNSLKASDTAMYYCARGGRDFGDSFDYWGQGTLVTVSSGGGGSGGGGSGGGGSDVVMTQSPSFLSAFVGDRITITCRASSGISRYLAWYQQAPGKAPKLLIYAASTLQTGVPSRFSGSGSGTEFTLTINSLQPEDFATYYCQHLNSYPLTFGGGTKVDIKRAA
As to B1, the “sensitivity of cell line to Mycograb alone” value with HS578T cells (HS578T cells, increasing concentrations up to 400 mg/l) was “insensitive”. Moreover, the “reduction in cell viability” value in the data set on K562 cells (K562 cells, Mycograb on its own at 12.5 μg/ml) is on record as 40%; in the data set on KU-812 cells, 40%; with HT29 cells [1] (Mycograb on its own at 125 μg/ml), 50%. Also, the Dm with HT29 cells [2] was 96.47.
